Data as given in BindingDB's records for doi:10.1021/jm00017a004 (Centre De Recherche Pierre Fabre, 1995).

biological target: Squalene monooxygenase (Sus scrofa); test: In vitro inhibitory activity against pig liver microsomal squalene epoxidase

Row | IC50 | SMILES
1 | 5000 nM | CCN(C/C=C/C#CC(C)(C)C)Cc1cccc(OC[Si](C)(C)c2ccc(C(=O)C(F)(F)F)cc2)c1 [1-{4-[(3-{[((E)-6,6-Dimethyl-hept-2-en-4-ynyl)-ethyl-amino]-methyl}-phenoxymethyl)-dimethyl-silanyl]-phenyl}-2,2,2-trifluoro-ethanone]
2 | 100 nM | CCN(C/C=C/C#CC(C)(C)C)Cc1cccc(OC[Si](C)(C)c2ccc(C=O)cc2)c1 [4-[(3-{[((E)-6,6-Dimethyl-hept-2-en-4-ynyl)-ethyl-amino]-methyl}-phenoxymethyl)-dimethyl-silanyl]-benzaldehyde]
3 | 5000 nM | CCN(C/C=C/C#CC(C)(C)C)Cc1cccc(OC[Si](C)(C)c2ccc(C(N)=O)cc2)c1 [4-[(3-{[((E)-6,6-Dimethyl-hept-2-en-4-ynyl)-ethyl-amino]-methyl}-phenoxymethyl)-dimethyl-silanyl]-benzamide]
4 | 8000 nM | CCN(C/C=C/C#CC(C)(C)C)Cc1cccc(OC[Si](C)(C)c2ccc(S)cc2)c1 [4-[(3-{[((E)-6,6-Dimethyl-hept-2-en-4-ynyl)-ethyl-amino]-methyl}-phenoxymethyl)-dimethyl-silanyl]-benzenethiol]
5 | 8000 nM | CCN(C/C=C/C#CC(C)(C)C)Cc1cccc(OC[Si](C)(C)c2ccc(O)cc2)c1 [4-[(3-{[((E)-6,6-Dimethyl-hept-2-en-4-ynyl)-ethyl-amino]-methyl}-phenoxymethyl)-dimethyl-silanyl]-phenol]
6 | 210 nM | CCN(C/C=C/C#CC(C)(C)C)Cc1cccc(OC[Si](C)(C)c2ccc(Br)cc2)c1 [(3-{[(4-Bromo-phenyl)-dimethyl-silanyl]-methoxy}-benzyl)-((E)-6,6-dimethyl-hept-2-en-4-ynyl)-ethyl-amine]
7 | 400 nM | CCN(C/C=C/C#CC(C)(C)C)Cc1cccc(OC[Si](C)(C)c2ccc(Cl)cc2)c1 [(3-{[(4-Chloro-phenyl)-dimethyl-silanyl]-methoxy}-benzyl)-((E)-6,6-dimethyl-hept-2-en-4-ynyl)-ethyl-amine]
8 | 10000 nM | CCN(C/C=C/C#CC(C)(C)C)Cc1cccc(OC[Si](C)(C)c2ccccc2-c2ccsc2)c1 [((E)-6,6-Dimethyl-hept-2-en-4-ynyl)-(3-{[dimethyl-(2-thiophen-3-yl-phenyl)-silanyl]-methoxy}-benzyl)-ethyl-amine]
9 | 70 nM | CCN(C/C=C/C#CC(C)(C)C)Cc1cccc(OC[Si](C)(C)c2ccccc2C(F)(F)F)c1 [((E)-6,6-Dimethyl-hept-2-en-4-ynyl)-(3-{[dimethyl-(2-trifluoromethyl-phenyl)-silanyl]-methoxy}-benzyl)-ethyl-amine]
10 | 70 nM | C=Cc1ccc([Si](C)(C)COc2cccc(CN(CC)C/C=C/C#CC(C)(C)C)c2)cc1 [((E)-6,6-Dimethyl-hept-2-en-4-ynyl)-(3-{[dimethyl-(4-vinyl-phenyl)-silanyl]-methoxy}-benzyl)-ethyl-amine]
11 | 60 nM | CCN(C/C=C/C#CC(C)(C)C)Cc1cccc(OC[Si](C)(C)c2ccc(F)cc2)c1 [((E)-6,6-Dimethyl-hept-2-en-4-ynyl)-ethyl-(3-{[(4-fluoro-phenyl)-dimethyl-silanyl]-methoxy}-benzyl)-amine]
12 | 870 nM | CCN(C/C=C/C#CC(C)(C)C)Cc1cccc(OC[Si](C)(C)c2ccc(OC)cc2)c1 [((E)-6,6-Dimethyl-hept-2-en-4-ynyl)-ethyl-(3-{[(4-methoxy-phenyl)-dimethyl-silanyl]-methoxy}-benzyl)-amine]
13 | 3000 nM | CCN(C/C=C/C#CC(C)(C)C)Cc1cccc(OC[Si](C)(C)c2cccc(C)c2)c1 [((E)-6,6-Dimethyl-hept-2-en-4-ynyl)-{3-[(dimethyl-m-tolyl-silanyl)-methoxy]-benzyl}-ethyl-amine]
14 | 120 nM | CCN(C/C=C/C#CC(C)(C)C)Cc1cccc(OC[Si](C)(C)c2ccc(C)cc2)c1 [((E)-6,6-Dimethyl-hept-2-en-4-ynyl)-{3-[(dimethyl-p-tolyl-silanyl)-methoxy]-benzyl}-ethyl-amine]
15 | > 10000 nM | CCN(C/C=C/C#CC(C)(C)C)Cc1cccc(OC[Si](C)(C)CCc2ccccc2)c1 [((E)-6,6-Dimethyl-hept-2-en-4-ynyl)-{3-[(dimethyl-phenethyl-silanyl)-methoxy]-benzyl}-ethyl-amine]
16 | 130 nM | CCN(C/C=C/C#CC(C)(C)C)Cc1cccc(OC[Si](C)(C)Cc2ccccc2)c1 [{3-[(Benzyl-dimethyl-silanyl)-methoxy]-benzyl}-((E)-6,6-dimethyl-hept-2-en-4-ynyl)-ethyl-amine]
17 | 20000 nM | CCN(C/C=C/C#CC(C)(C)C)Cc1cccc(OC[Si](C)(C)C2CCCCC2)c1 [{3-[(Cyclohexyl-dimethyl-silanyl)-methoxy]-benzyl}-((E)-6,6-dimethyl-hept-2-en-4-ynyl)-ethyl-amine]

Row | SMILES | IC50
18 | CCN(CC#CC#CC(C)(C)OC)Cc1cccc(OC[Si](C)(C)c2ccccc2C)c1 [{3-[(Dimethyl-o-tolyl-silanyl)-methoxy]-benzyl}-ethyl-(6-methoxy-6-methyl-hepta-2,4-diynyl)-amine] | 70 nM
